Patent US12433900B2, “Intravitreal corticosteroid extended release implant and methods of use” (Eyedea Bio, LLC, priority 2021, dated 2025)

Test: Calculated Octanol Solubility Index (OSI) and Topological Polar Surface Area (TPSA) of the API
Conditions: calculated using the log P and maximal aqueous solubility

| OSI (Octanol Solubility Index) | SMILES |
| --- | --- |
| 3.85 | C[C@@H]1C[C@H]2[C@@H]3CCC4=CC(=O)C=C[C@]4(C)[C@@]3(F)[C@@H](O)C[C@]2(C)[C@@]1(O)C(=O)CO [dexamethasone free base, 9α-fluoro-11β,17α,21-trihydroxy-16α-methylpregna-1,4-diene-3,20-dione] |
| 3.71 | C[C@@H]1C[C@H]2[C@@H]3CCC4=CC(=O)C=C[C@]4(C)[C@@]3(F)[C@@H](O)C[C@]2(C)[C@@]1(O)C(=O)COP(=O)(O)O [dexamethasone phosphate] |
| 3.48 | CC1(C)O[C@@H]2C[C@H]3[C@@H]4C[C@H](F)C5=CC(=O)C=C[C@]5(C)[C@@]4(F)[C@@H](O)C[C@]3(C)[C@]2(C(=O)CO)O1 [fluocinolone acetonide, 6α,9α-difluoro-11β,16α,17α,21-tetrahydroxypregna-1,4-diene-3,20-dione cyclic 16α,17α-acetal with acetone] |
